Results: the NIST ThermoML archive (doi:10.1021/je900244c)
Where “and” joins values, the source holds several entries; their conditions need not be identical. Equal entries are not always repeated.

Test: xn = mol fraction of the nth substance listed
Conditions: Gas, Buoyancy - hydrostatic balance with magnetic suspension - two sinkers

CC(C)C [2-methylpropane] + CCC
Conditions	mass density
303.15 K, 440.3 kPa, x2 = 0.503	9.824 kg/m3
303.15 K, 440.7 kPa, x2 = 0.503	9.834 kg/m3
303.15 K, 449.9 kPa, x2 = 0.503	10.061 kg/m3
303.15 K, 450 kPa, x2 = 0.503	10.069 kg/m3
303.15 K, 460 kPa, x2 = 0.503	10.317 kg/m3
303.15 K, 460.4 kPa, x2 = 0.503	10.325 kg/m3
303.15 K, 470.2 kPa, x2 = 0.503	10.57 kg/m3
303.15 K, 470.5 kPa, x2 = 0.503	10.581 kg/m3
303.15 K, 480 kPa, x2 = 0.503	10.823 kg/m3
303.15 K, 480.3 kPa, x2 = 0.503	10.83 kg/m3
303.15 K, 489.7 kPa, x2 = 0.503	11.072 kg/m3
303.15 K, 490.4 kPa, x2 = 0.503	11.087 kg/m3
303.15 K, 500.3 kPa, x2 = 0.503	11.344 kg/m3
303.15 K, 500.4 kPa, x2 = 0.503	11.344 kg/m3
303.15 K, 510.3 kPa, x2 = 0.503	11.608 kg/m3
303.15 K, 510.5 kPa, x2 = 0.503	11.6 kg/m3
303.15 K, 520.4 kPa, x2 = 0.503	11.861 kg/m3 and 11.864 kg/m3
303.15 K, 530.4 kPa, x2 = 0.503	12.121 kg/m3
303.15 K, 530.7 kPa, x2 = 0.503	12.129 kg/m3
303.15 K, 540.1 kPa, x2 = 0.503	12.37 kg/m3
303.15 K, 540.2 kPa, x2 = 0.503	12.378 kg/m3
303.15 K, 550.1 kPa, x2 = 0.503	12.642 kg/m3
303.15 K, 550.3 kPa, x2 = 0.503	12.642 kg/m3
303.15 K, 560.3 kPa, x2 = 0.503	12.914 kg/m3
303.15 K, 564.6 kPa, x2 = 0.503	13.019 kg/m3
303.15 K, 570.1 kPa, x2 = 0.503	13.17 kg/m3
303.15 K, 570.4 kPa, x2 = 0.503	13.178 kg/m3
303.15 K, 575.1 kPa, x2 = 0.503	13.306 kg/m3
303.15 K, 580.1 kPa, x2 = 0.503	13.434 kg/m3
303.15 K, 580.7 kPa, x2 = 0.503	13.453 kg/m3
303.15 K, 584.3 kPa, x2 = 0.503	13.548 kg/m3
303.15 K, 599.9 kPa, x2 = 0.799	12.55 kg/m3
303.15 K, 600.1 kPa, x2 = 0.799	12.557 kg/m3
303.15 K, 609.7 kPa, x2 = 0.799	12.784 kg/m3
303.15 K, 610.2 kPa, x2 = 0.799	12.802 kg/m3
303.15 K, 620.2 kPa, x2 = 0.799	13.04 kg/m3
303.15 K, 630.2 kPa, x2 = 0.799	13.289 kg/m3
303.15 K, 639.7 kPa, x2 = 0.799	13.516 kg/m3
303.15 K, 649.7 kPa, x2 = 0.799	13.757 kg/m3
303.15 K, 659.8 kPa, x2 = 0.799	14.006 kg/m3
303.15 K, 680.1 kPa, x2 = 0.799	14.516 kg/m3
303.15 K, 700 kPa, x2 = 0.799	15.01 kg/m3
303.15 K, 720 kPa, x2 = 0.799	15.515 kg/m3
303.15 K, 739.9 kPa, x2 = 0.799	16.028 kg/m3
303.15 K, 760.5 kPa, x2 = 0.799	16.557 kg/m3
303.15 K, 770.4 kPa, x2 = 0.799	16.821 kg/m3
303.15 K, 779.5 kPa, x2 = 0.799	17.055 kg/m3
303.15 K, 780.1 kPa, x2 = 0.799	17.073 kg/m3
303.15 K, 789.8 kPa, x2 = 0.799	17.319 kg/m3
303.15 K, 790.1 kPa, x2 = 0.799	17.342 kg/m3
303.15 K, 799.6 kPa, x2 = 0.799	17.59 kg/m3
323.15 K, 590.1 kPa, x2 = 0.244	13.582 kg/m3
323.15 K, 600.1 kPa, x2 = 0.244	13.847 kg/m3
323.15 K, 600.6 kPa, x2 = 0.249	13.833 kg/m3
323.15 K, 600.7 kPa, x2 = 0.249	13.848 kg/m3
323.15 K, 609.5 kPa, x2 = 0.244	14.1 kg/m3
323.15 K, 610.4 kPa, x2 = 0.249	14.09 kg/m3
323.15 K, 620.1 kPa, x2 = 0.249	14.354 kg/m3
323.15 K, 620.5 kPa, x2 = 0.244	14.391 kg/m3
323.15 K, 620.7 kPa, x2 = 0.249	14.369 kg/m3
323.15 K, 629.7 kPa, x2 = 0.244	14.643 kg/m3
323.15 K, 630.3 kPa, x2 = 0.249	14.633 kg/m3
323.15 K, 630.5 kPa, x2 = 0.244	14.658 kg/m3
323.15 K, 630.5 kPa, x2 = 0.249	14.64 kg/m3
323.15 K, 640.1 kPa, x2 = 0.249	14.889 kg/m3
323.15 K, 640.7 kPa, x2 = 0.244	14.937 kg/m3
323.15 K, 640.9 kPa, x2 = 0.249	14.923 kg/m3
323.15 K, 650.1 kPa, x2 = 0.249	15.168 kg/m3
323.15 K, 650.3 kPa, x2 = 0.244	15.201 kg/m3
323.15 K, 651.3 kPa, x2 = 0.244	15.223 kg/m3
323.15 K, 660 kPa, x2 = 0.249	15.436 kg/m3
323.15 K, 660.1 kPa, x2 = 0.249	15.447 kg/m3
323.15 K, 660.6 kPa, x2 = 0.244	15.487 kg/m3
323.15 K, 670 kPa, x2 = 0.244	15.744 kg/m3
323.15 K, 670 kPa, x2 = 0.249	15.714 kg/m3
323.15 K, 670.1 kPa, x2 = 0.249	15.719 kg/m3
323.15 K, 679.7 kPa, x2 = 0.244	16.015 kg/m3
323.15 K, 680.3 kPa, x2 = 0.249	15.998 kg/m3
323.15 K, 680.4 kPa, x2 = 0.249	16.006 kg/m3
323.15 K, 690.2 kPa, x2 = 0.244	16.31 kg/m3
323.15 K, 690.2 kPa, x2 = 0.249	16.277 kg/m3 and 16.285 kg/m3
323.15 K, 691.1 kPa, x2 = 0.244	16.328 kg/m3
323.15 K, 700.1 kPa, x2 = 0.244	16.592 kg/m3
323.15 K, 700.3 kPa, x2 = 0.249	16.571 kg/m3
323.15 K, 700.4 kPa, x2 = 0.249	16.571 kg/m3
323.15 K, 709.8 kPa, x2 = 0.244	16.868 kg/m3
323.15 K, 710 kPa, x2 = 0.249	16.835 kg/m3
323.15 K, 710.1 kPa, x2 = 0.249	16.843 kg/m3
323.15 K, 710.3 kPa, x2 = 0.244	16.875 kg/m3
323.15 K, 720.3 kPa, x2 = 0.249	17.129 kg/m3
323.15 K, 720.4 kPa, x2 = 0.249	17.137 kg/m3
323.15 K, 720.6 kPa, x2 = 0.244	17.177 kg/m3
323.15 K, 730 kPa, x2 = 0.249	17.416 kg/m3
323.15 K, 730.3 kPa, x2 = 0.249	17.408 kg/m3
323.15 K, 730.4 kPa, x2 = 0.244	17.456 kg/m3
323.15 K, 730.5 kPa, x2 = 0.244	17.456 kg/m3
323.15 K, 739.8 kPa, x2 = 0.249	17.687 kg/m3
323.15 K, 740 kPa, x2 = 0.249	17.697 kg/m3
323.15 K, 740.4 kPa, x2 = 0.244	17.75 kg/m3
323.15 K, 749.8 kPa, x2 = 0.244	18.022 kg/m3
323.15 K, 750 kPa, x2 = 0.249	17.989 kg/m3 and 17.996 kg/m3
323.15 K, 750.2 kPa, x2 = 0.244	18.029 kg/m3
323.15 K, 759.7 kPa, x2 = 0.249	18.276 kg/m3
323.15 K, 759.9 kPa, x2 = 0.249	18.276 kg/m3
323.15 K, 761.2 kPa, x2 = 0.244	18.357 kg/m3
323.15 K, 769.7 kPa, x2 = 0.244	18.602 kg/m3
323.15 K, 769.9 kPa, x2 = 0.249	18.577 kg/m3
323.15 K, 770 kPa, x2 = 0.249	18.577 kg/m3
323.15 K, 770.4 kPa, x2 = 0.499	16.983 kg/m3
323.15 K, 770.7 kPa, x2 = 0.499	16.982 kg/m3
323.15 K, 780 kPa, x2 = 0.249	18.871 kg/m3
323.15 K, 780.2 kPa, x2 = 0.499	17.239 kg/m3
323.15 K, 780.3 kPa, x2 = 0.499	17.244 kg/m3
323.15 K, 780.5 kPa, x2 = 0.249	18.894 kg/m3
323.15 K, 790.6 kPa, x2 = 0.244	19.228 kg/m3
323.15 K, 790.6 kPa, x2 = 0.499	17.513 kg/m3
323.15 K, 799.9 kPa, x2 = 0.249	19.467 kg/m3
323.15 K, 800.2 kPa, x2 = 0.499	17.765 kg/m3 and 17.769 kg/m3
323.15 K, 810.5 kPa, x2 = 0.499	18.042 kg/m3
323.15 K, 820.2 kPa, x2 = 0.499	18.299 kg/m3
323.15 K, 820.4 kPa, x2 = 0.499	18.307 kg/m3
323.15 K, 830.3 kPa, x2 = 0.499	18.572 kg/m3
323.15 K, 840.3 kPa, x2 = 0.499	18.844 kg/m3
323.15 K, 840.4 kPa, x2 = 0.499	18.848 kg/m3
323.15 K, 850.3 kPa, x2 = 0.499	19.121 kg/m3
323.15 K, 860.2 kPa, x2 = 0.499	19.387 kg/m3
323.15 K, 860.4 kPa, x2 = 0.499	19.398 kg/m3
323.15 K, 870.4 kPa, x2 = 0.499	19.669 kg/m3
323.15 K, 879.9 kPa, x2 = 0.499	19.938 kg/m3
323.15 K, 880.4 kPa, x2 = 0.499	19.948 kg/m3
323.15 K, 890.2 kPa, x2 = 0.499	20.228 kg/m3
323.15 K, 900.1 kPa, x2 = 0.499	20.506 kg/m3
323.15 K, 900.6 kPa, x2 = 0.499	20.517 kg/m3
323.15 K, 910.1 kPa, x2 = 0.499	20.784 kg/m3
323.15 K, 920.3 kPa, x2 = 0.499	21.078 kg/m3
323.15 K, 920.6 kPa, x2 = 0.499	21.087 kg/m3
323.15 K, 930.3 kPa, x2 = 0.499	21.359 kg/m3
323.15 K, 939.7 kPa, x2 = 0.499	21.637 kg/m3
323.15 K, 939.8 kPa, x2 = 0.499	21.635 kg/m3
323.15 K, 950.6 kPa, x2 = 0.499	21.949 kg/m3
323.15 K, 960.2 kPa, x2 = 0.499	22.222 kg/m3
323.15 K, 960.3 kPa, x2 = 0.499	22.242 kg/m3
323.15 K, 970.3 kPa, x2 = 0.499	22.521 kg/m3
323.15 K, 978.9 kPa, x2 = 0.499	22.767 kg/m3
323.15 K, 979.6 kPa, x2 = 0.499	22.791 kg/m3
